Measurements published in patent US20080181940A1, “Method For Accelerating Expression of CPT-1” (Amorepacific Corporation, priority 2003, published 2008).

Tests used:
[1] = tested on: obesity induced by high fat diet; test: Body weight and food consumption of rats on high fat diet, 8 weeks of dieting; format: in vivo, Sprague-Dawley white male rat; settings: for Body weight after dieting: after 8 weeks, high fat diet + 0.2% of each substance in diet, n = 12; for increase of body weight compared with control group with high fat diet: words, 0.2% in high fat diet, 8 weeks
From the text: In order to verify the effects of the present composition to the metabolism of lipid in the fat animals induced by dieting high fat diet, Sprague-Dawley white male rat model was selected. In order to verify the effects of genistein, diadzein and glycitein to the obesity induced from high fat diet, rats of 6 weeks old were adapted for a week and assigned 12 rats for each experimental group. Experimental groups are as follows: (1) normal fat diet; (2) high fat diet; (3) high fat diet+genistein 0.2%; (4) high fat diet+L-carnitine 0.2%; (5) high fat diet+genistein 0.2%+L-carnitine 0.2%; (6) high fat diet+diadzein 0.2%; (7) high fat diet+diadzein 0.2%+L-carnitine 0.2%; (8) high fat diet+glycitein 0.2%; and (9) high fat diet+glycitein 0.2%+L-carnitine 0.2%, and the rats were […] for 8 weeks. […] The amount of diet consumed and body weight was measure three times per week during dieting.

[2] = tested on: adipocytes of male SD rat; test: Acceleration of oxidation of neutral fat in adipocytes (glycerol released into the medium); format: cell-based; settings: added in 10 μmol unit, control = 100%, FIG. 1
Description: Epididymal adipose tissues obtained from male SD rat were cut to small pieces, and 0.1% of collagenase (in DMEM without phenol red) was added then cultured for 2 hours at 37° C., and then filtered to obtain adipocyte.
A control was cultured in a medium not containing the composition of the present invention (experimental material). In the experimental samples, genistein and/or L-carnitine was added in 10 μmol unit. Results are calculated relatively converting the control to be 100%. Degrees of oxidation of fats are determined by measuring the concentration of glycerol separated into the medium from the adipocytes.
Experiments were performed by taking cell cultures prepared by adding colorless DMEM (Dulbeco's modified eagles medium) containing 0.5% bovine serum albumin (BAS) without fatty acid to the adipocytes. The amount of glycerol was measured with color reaction method using GPO-trinder kit purchased from Sigma (St. Louis, Mo., U.S.A) and absorption in 540 nm was measured with ELISA reader.

[3] = tested on: obesity induced by high fat diet; test: Weight of epididymal adipose tissue of rats after 8 weeks of high fat diet; format: in vivo, Sprague-Dawley white male rat; settings: for Weight of epididymal adipose: after 8 weeks, high fat diet + 0.2% of each substance in diet, n = 12; for weight of epididymal adipose compared with control group with high fat diet: words, 0.2% in high fat diet, 8 weeks
From the text: In order to verify the effects of the present composition to the metabolism of lipid in the fat animals induced by dieting high fat diet, Sprague-Dawley white male rat model was selected. In order to verify the effects of genistein, diadzein and glycitein to the obesity induced from high fat diet, rats of 6 weeks old were adapted for a week and assigned 12 rats for each experimental group. Experimental groups are as follows: (1) normal fat diet; (2) high fat diet; (3) high fat diet+genistein 0.2%; (4) high fat diet+L-carnitine 0.2%; (5) high fat diet+genistein 0.2%+L-carnitine 0.2%; (6) high fat diet+diadzein 0.2%; (7) high fat diet+diadzein 0.2%+L-carnitine 0.2%; (8) high fat diet+glycitein 0.2%; and (9) high fat diet+glycitein 0.2%+L-carnitine 0.2%, and the rats were dieted for 8 weeks. Basic experimental diet was purified AIN-93G diet, and high fat diet was prepared to have fat occupy 36% of the total energy (18% of the total diet), normal fat diet was prepared to have fat occupy 17% of the total energy (7% of the total diet).
After 8 weeks of dieting with the groups of normal fat diet, high fat diet, high fat diet+genistein (0.2%), high fat diet+L-carnitine (0.2%), high fat diet+genistein (0.2%)+L-carnitine (0.2%), high fat diet+diadzein (0.2%), high fat diet+diadzein (0.2%)+L-carnitine (0.2%), high fat diet+glycitein (0.2%) and high fat diet+glycitein (0.2%)+L-carnitine (0.2%), the rats were sacrificed to obtain epididymal adipose tissues. The above obtained epididymal adipose tissues were washed with saline and moistures were removed on a filter bed, then weights were measured.

[4] = cited from earlier work
CPT-1 = test: Expression of CPT-1 mRNA in liver by northern blotting and densitometry; format: in vivo, rat; settings: 8 weeks
From the text: After 8 weeks of dieting with following four (4) groups of high fat diet, high fat diet+genistein (0.2%), high fat diet+genistein (0.2%)+L-carnitine (0.2%) and high fat diet+genistein (0.4%), the rats were sacrificed to obtain liver tissues thereof. After homogenizing the liver tissues, RNA were extracted from the tissues using TRIZOL (Life Technologies, grand Island, N.Y., USA) consisting of phenol and guanidine isothiocyanate. Degree of expression of CPT-1 mRNA from the above extracted RNA was measured by northern blotting test, and expressed quantitatively by densitometry as shown in FIGS. 2a and 2b.

SMILES | Body weight after dieting [1] [g] | increase of body weight compared with control group with high fat diet [1] | oxidation of fatty acids increased compared with that of the control [2] [times] | Weight of epididymal adipose [3] [g] | weight of epididymal adipose compared with control group with high fat diet [3] | side effects of an excessive quantity, female rats ([4]; female rats) | side effects of an excessive quantity, male rats ([4]; male rats) | expression of CPT-1 compared with the group of high fat diet (CPT-1; 0.2% of each substance in high fat diet, FIG. 2b) | dependence of the expression of CPT-1 on concentration (CPT-1; genistein 0.2% vs 0.4% in high fat diet)
C[N+](C)(C)CC(O)CC(=O)[O-] [L-carnitine, β-hydroxy-γ-trimethylammonium butyric acid] | 465.1 ± 31.8 | almost the same | 2.07 | 7.9 ± 0.45 | almost the same |  |  |  | 
O=c1c(-c2ccc(O)cc2)coc2cc(O)ccc12 [diadzein] | 441.3 ± 19.4 | also small |  | 6.1 ± 0.35 | also small |  |  |  | 
O=c1c(-c2ccc(O)cc2)coc2cc(O)cc(O)c12 [genistein] | 433.5 ± 19.4 | small | 1.92 | 5.2 ± 0.67 | small | disorder of secretion | reduction of spermatozoa and sperm | increased | increases positively according to the concentration of genistein
COc1cc2c(=O)c(-c3ccc(O)cc3)coc2cc1O [glycitein] | 446.4 ± 21.6 | also small |  | 6.3 ± 0.41 | also small |  |  |  | 
